Measurements from ChEMBL document CHEMBL1697781, “Assessment of the health effects of chemicals in humans: II. Construction of an adverse effects database for QSAR modeling” (Curr Drug Discov Technol, 2004).

What was measured:
Settings in all cases: human; call rule not given here
Hepatotoxicity [1] = assay: FDA HLAED, serum glutamic oxaloacetic transaminase (SGOT) increase
Hepatotoxicity [2] = assay: FDA HLAED, serum glutamic pyruvic transaminase (SGPT) increase
Hepatotoxicity [3] = assay: FDA HLAED, liver enzyme composite activity
Hepatotoxicity [4] = assay: FDA HLAED, alkaline phosphatase increase
Hepatotoxicity [5] = assay: FDA HLAED, lactate dehydrogenase (LDH) increase
Hepatotoxicity [6] = assay: FDA HLAED, gamma-glutamyl transferase (GGT) increase
Wherever GGT Increase - Index Value is given: reference of the scale not given here.
Wherever LDH Increase - Index Value is given: reference of the scale not given here.

CC(C)COCC(CN(Cc1ccccc1)c1ccccc1)N1CCCC1 (stereo not given) [BEPRIDIL] was tested, and the “SGOT Increase - Activity Score” value (Hepatotoxicity [1]) was “Inactive”, the “SGOT Increase - Index Value” (Hepatotoxicity [1]) was 0 and the “SGOT Increase - Number of Reports” value (Hepatotoxicity [1]) was < 4. For the same compound, the “SGPT Increase - Activity Score” value (Hepatotoxicity [2]) was “Inactive”, the “SGPT Increase - Index Value” (Hepatotoxicity [2]) was 0 and the “SGPT Increase - Number of Reports” value (Hepatotoxicity [2]) was < 4. For the same compound, the “Composite Activity - Active” value (Hepatotoxicity [3]) was 0, the “Composite Activity - Marginal” value (Hepatotoxicity [3]) was 0 and the “Composite Activity - Score” value (Hepatotoxicity [3]) was “Inactive”. For the same compound, the “Alkaline Phosphatase Increase - Activity Score” value (Hepatotoxicity [4]) was “Inactive”, the “Alkaline Phosphatase Increase - Index Value” (Hepatotoxicity [4]) was 0 and the “Alkaline Phosphatase Increase - Number of Reports” value (Hepatotoxicity [4]) was < 4. For the same compound, the “LDH Increase - Activity Score” value (Hepatotoxicity [5]) was “Inactive”, the “LDH Increase - Index Value” (Hepatotoxicity [5]) was 27.1 and the “LDH Increase - Number of Reports” value (Hepatotoxicity [5]) was < 4. For the same compound, the “GGT Increase - Activity Score” value (Hepatotoxicity [6]) was “Inactive”, the “GGT Increase - Index Value” (Hepatotoxicity [6]) was 0 and the “GGT Increase - Number of Reports” value (Hepatotoxicity [6]) was < 4.
CC(C)NCC(O)COc1ccc(CCOCC2CC2)cc1 (stereo not given) [BETAXOLOL] was tested, and the “SGOT Increase - Activity Score” value (Hepatotoxicity [1]) was “Inactive”, the “SGOT Increase - Index Value” (Hepatotoxicity [1]) was 0 and the “SGOT Increase - Number of Reports” value (Hepatotoxicity [1]) was < 4. The “SGPT Increase - Activity Score” value (Hepatotoxicity [2]) was “Inactive”, the “SGPT Increase - Index Value” (Hepatotoxicity [2]) was 0 and the “SGPT Increase - Number of Reports” value (Hepatotoxicity [2]) was < 4. The “Composite Activity - Active” value (Hepatotoxicity [3]; Liver) was 0, the “Composite Activity - Marginal” value (Hepatotoxicity [3]; Liver) was 0 and the “Composite Activity - Score” value (Hepatotoxicity [3]; Liver) was “Inactive”. For the same compound, the “Alkaline Phosphatase Increase - Activity Score” value (Hepatotoxicity [4]) was “Inactive”, the “Alkaline Phosphatase Increase - Index Value” (Hepatotoxicity [4]) was 0 and the “Alkaline Phosphatase Increase - Number of Reports” value (Hepatotoxicity [4]) was < 4. The “LDH Increase - Activity Score” value (Hepatotoxicity [5]) was “Inactive”, the “LDH Increase - Index Value” (Hepatotoxicity [5]) was 0 and the “LDH Increase - Number of Reports” value (Hepatotoxicity [5]) was < 4. For the same compound, the “GGT Increase - Activity Score” value (Hepatotoxicity [6]) was “Inactive”, the “GGT Increase - Index Value” (Hepatotoxicity [6]) was 0 and the “GGT Increase - Number of Reports” value (Hepatotoxicity [6]) was < 4.
For CC(O)(CS(=O)(=O)c1ccc(F)cc1)C(=O)Nc1ccc(C#N)c(C(F)(F)F)c1 (stereo not given) [BICALUTAMIDE], the “SGOT Increase - Activity Score” value (Hepatotoxicity [1]) was “Active”, the “SGOT Increase - Index Value” (Hepatotoxicity [1]) was 13.6 and the “SGOT Increase - Number of Reports” value (Hepatotoxicity [1]) was “>= 4”. The “SGPT Increase - Activity Score” value (Hepatotoxicity [2]) was “Active”, the “SGPT Increase - Index Value” (Hepatotoxicity [2]) was 11.9 and the “SGPT Increase - Number of Reports” value (Hepatotoxicity [2]) was “>= 4”. The “Composite Activity - Active” value (Hepatotoxicity [3]) was 3, the “Composite Activity - Marginal” value (Hepatotoxicity [3]) was 0 and the “Composite Activity - Score” value (Hepatotoxicity [3]) was “Active”. The “Alkaline Phosphatase Increase - Activity Score” value (Hepatotoxicity [4]) was “Active”, the “Alkaline Phosphatase Increase - Index Value” (Hepatotoxicity [4]) was 8.5 and the “Alkaline Phosphatase Increase - Number of Reports” value (Hepatotoxicity [4]) was “>= 4”. For the same compound, the “LDH Increase - Activity Score” value (Hepatotoxicity [5]) was “Inactive”, the “LDH Increase - Index Value” (Hepatotoxicity [5]) was 5.1 and the “LDH Increase - Number of Reports” value (Hepatotoxicity [5]) was < 4. For the same compound, the “GGT Increase - Activity Score” value (Hepatotoxicity [6]) was “Inactive”, the “GGT Increase - Index Value” (Hepatotoxicity [6]) was 1.7 and the “GGT Increase - Number of Reports” value (Hepatotoxicity [6]) was < 4.
CC(C)NCC(O)COc1ccc(COCCOC(C)C)cc1 (stereo not given) [BISOPROLOL] was tested, and the “SGOT Increase - Activity Score” value (Hepatotoxicity [1]) was “Inactive”, the “SGOT Increase - Index Value” (Hepatotoxicity [1]) was 0 and the “SGOT Increase - Number of Reports” value (Hepatotoxicity [1]) was < 4. The “SGPT Increase - Activity Score” value (Hepatotoxicity [2]) was “Inactive”, the “SGPT Increase - Index Value” (Hepatotoxicity [2]) was 3.1 and the “SGPT Increase - Number of Reports” value (Hepatotoxicity [2]) was < 4. For the same compound, the “Composite Activity - Active” value (Hepatotoxicity [3]) was 1, the “Composite Activity - Marginal” value (Hepatotoxicity [3]) was 0 and the “Composite Activity - Score” value (Hepatotoxicity [3]) was “Inactive”. The “Alkaline Phosphatase Increase - Activity Score” value (Hepatotoxicity [4]) was “Inactive”, the “Alkaline Phosphatase Increase - Index Value” (Hepatotoxicity [4]) was 3.1 and the “Alkaline Phosphatase Increase - Number of Reports” value (Hepatotoxicity [4]) was < 4. For the same compound, the “LDH Increase - Activity Score” value (Hepatotoxicity [5]) was “Inactive”, the “LDH Increase - Index Value” (Hepatotoxicity [5]) was 0 and the “LDH Increase - Number of Reports” value (Hepatotoxicity [5]) was < 4. The “GGT Increase - Activity Score” value (Hepatotoxicity [6]) was “Active”, the “GGT Increase - Index Value” (Hepatotoxicity [6]) was 12.3 and the “GGT Increase - Number of Reports” value (Hepatotoxicity [6]) was < 4.
For Cc1ccc(C(=O)Oc2ccc(C(O)CNC(C)(C)C)cc2OC(=O)c2ccc(C)cc2)cc1 (stereo not given) [BITOLTEROL], the “SGOT Increase - Activity Score” value (Hepatotoxicity [1]) was “Inactive”, the “SGOT Increase - Index Value” (Hepatotoxicity [1]) was 0 and the “SGOT Increase - Number of Reports” value (Hepatotoxicity [1]) was < 4. The “SGPT Increase - Activity Score” value (Hepatotoxicity [2]) was “Inactive”, the “SGPT Increase - Index Value” (Hepatotoxicity [2]) was 0 and the “SGPT Increase - Number of Reports” value (Hepatotoxicity [2]) was < 4. For the same compound, the “Composite Activity - Active” value (Hepatotoxicity [3]) was 0, the “Composite Activity - Marginal” value (Hepatotoxicity [3]) was 0 and the “Composite Activity - Score” value (Hepatotoxicity [3]) was “Inactive”. The “Alkaline Phosphatase Increase - Activity Score” value (Hepatotoxicity [4]) was “Inactive”, the “Alkaline Phosphatase Increase - Index Value” (Hepatotoxicity [4]) was 0 and the “Alkaline Phosphatase Increase - Number of Reports” value (Hepatotoxicity [4]) was < 4. The “LDH Increase - Activity Score” value (Hepatotoxicity [5]) was “Inactive”, the “LDH Increase - Index Value” (Hepatotoxicity [5]) was 0 and the “LDH Increase - Number of Reports” value (Hepatotoxicity [5]) was < 4. The “GGT Increase - Activity Score” value (Hepatotoxicity [6]) was “Inactive”, the “GGT Increase - Index Value” (Hepatotoxicity [6]) was 0 and the “GGT Increase - Number of Reports” value (Hepatotoxicity [6]) was < 4.
